Series [1] can be described thus: in vivo. Particulars: male, SD, rat, iv, 10 nmol/kg. The method, then: The experiment was carried out using rats into which polyethylene tube (PE-50 manufactured by Clay Adams) was previously inserted into thigh artery under an anesthetized condition with Nembutal. As to a test system, male SD strain rats (Nippon Charles River) of 7 weeks age were used where one group comprised 3 rats. Native CNP-22 or chimeric CNP in a dose of 10 nmol/kg was administered into tail vein of the rat and the blood before the administration and until 60 minutes after the administration was collected by a polyethylene tube inserted into the thigh artery. To the collected blood were added EDTA (manufactured by Dojin Laboratories) and aprotinin (manufactured by Bayer) as a stabilizer and an anti-coagulant, respectively and the plasma was separated therefrom by centrifugal separation. CNP immunoreactivity concentration in plasma was measured by a competitive radioimmunoassay (RIA). At that time, a rabbit polyclonal antibody (#2) which specifically recognizes the ring partial structure of the native CNP-22 was used as an antibody and, as a labeled compound, ^125I-[Tyr^0] CNP was used.

A short description of series [2]: in vivo. Particulars: rat, iv. The method, then:
Changes in CNP immunoreactivity concentration in plasma when the native CNP-22 shown by SEQ ID No: 101 was administered either solely or jointly with neutral endo-peptidase (NEP) inhibitor and compared with changes in CNP immunoreactivity concentration in plasma when native CNP-53 (SEQ ID No: 159) and the chimeric CNP (D) (structure mentioned already) were intravenously administered.
The experiment was conducted using rats where polyethylene tube (PE-50, manufactured by Clay Adams) was previously inserted into thigh artery under the anesthetized condition with Nembutal. In the group where the native CNP-22 was administered either solely or jointly with an NEP inhibitor, the polyethylene tube (PE-10, manufactured by Clay Adams) was also inserted into the thigh vein. As to a test system, male SD rats (Nippon Charles River) of 7 weeks age were used where one group comprised three rats. As to the NEP inhibitor, DL-Thiorphan (manufactured by Sigma) was used and, during the period from 10 minutes before the initiation of administration of the native CNP-22 until 60 minutes after the initiation of the administration where collection of the blood finished, 5% mannitol (100 μL/min/body) or NEP inhibitor (30 μg/100 μL/min/body) was subjected to a constant-speed intravenous administration for 70 minutes using an Infusion Pump (CFV 2100, manufactured by Nippon Koden K. K.). Native CNP-22, native CNP-53 or chimeric CNP (D) was administered into tail vein in a dose of 20 nmol/kg each and blood over the time from before administration and 60 minutes after administration was collected from a polyethylene tube inserted into the thigh artery. To the collected blood were added EDTA (Dojin Laboratories) and aprotinin (manufactured by Bayer) as a stabilizer and an anti-coagulant, respectively and the plasma was separated by means of centrifugal separation. CNP immunoreactivity concentration in the plasma was measured by a competitive radioimmunoassay (RIA). At that time, a rabbit polyclonal antibody (#2) which specifically recognizes a ring part structure which is the common structure for native CNP-22 and native CNP-53 was used as an antibody while, as a labeling compound, ^125I-[Tyr^0] CNP-22 was used.

Where a SMILES comes first, the peptide text is derived from it. Bridges are numbered along the chain shown (N, C = ends). Where no end group is shown, it is not given here.

This is an account of results in patent US8551937B2, “Peptide having an extending action for half-life of object peptide in plasma” (priority 2008, dated 2013).

Broadly, the half-life is how long it takes for the measured level to halve. A lower half-life goes with fast loss. Turning to `CC[C@H](C)[C@@H]1NC(=O)[C@H](CCCNC(=N)N)NC(=O)[C@H](CC(=O)O)NC(=O)[C@H](CC(C)C)NC(=O)[C@H](CCCCN)NC(=O)[C@H](CC(C)C)NC(=O)CNC(=O)[C@H](Cc2ccccc2)NC(=O)[C@@H](NC(=O)[C@H](CCCNC(=N)N)NC(=O)[C@@H]2CCCN2C(=O)[C@H](CCC(N)=O)NC(=O)[C@H](CC(C)C)NC(=O)[C@H](CCCCN)NC(=O)[C@H](C)NC(=O)[C@@H]2CCCN2C(=O)[C@@H]2CCCN2C(=O)[C@H](CCCCN)NC(=O)[C@H](CCCCN)NC(=O)[C@H](CO)NC(=O)[C@H](CCC(=O)O)NC(=O)[C@H](CCCCN)NC(=O)[C@H](CCCNC(=N)N)NC(=O)[C@H](CCC(N)=O)NC(=O)[C@H](CCC(N)=O)NC(=O)[C@@H](N)C(C)C)CSSC[C@@H](C(=O)O)NC(=O)CNC(=O)[C@H](CC(C)C)NC(=O)CNC(=O)[C@H](CO)NC(=O)[C@H](CCSC)NC(=O)[C@H](CO)NC(=O)CNC1=O` [Chimeric CNP (G)] (H-VQQRKESKKPPAKLQPRCFGLKLDRIGSMSGLGC-OH; disulfide 18-34; N-terminus and C-terminus assumed), the half-life in the series “in vivo [1]” was 17.8 min.

Consider `CC[C@H](C)[C@@H]1NC(=O)[C@H](CCCNC(=N)N)NC(=O)[C@H](CC(=O)O)NC(=O)[C@H](CC(C)C)NC(=O)[C@H](CCCCN)NC(=O)[C@H](CC(C)C)NC(=O)CNC(=O)[C@H](Cc2ccccc2)NC(=O)[C@@H](NC(=O)CNC(=O)[C@H](CCCCN)NC(=O)[C@H](CO)NC(=O)[C@H](CC(C)C)NC(=O)CNC(=O)[C@H](CCCCN)NC(=O)[C@H](CCCCN)NC(=O)[C@H](CC(N)=O)NC(=O)[C@H](C)NC(=O)CNC(=O)[C@H](CCCCN)NC(=O)[C@H](Cc2ccc(O)cc2)NC(=O)[C@H](CCCCN)NC(=O)[C@H](CCCNC(=N)N)NC(=O)[C@H](C)NC(=O)[C@H](CC(N)=O)NC(=O)[C@@H]2CCCN2C(=O)[C@H](Cc2c[nH]cn2)NC(=O)[C@H](CCC(=O)O)NC(=O)[C@H](CCC(N)=O)NC(=O)[C@H](CC(C)C)NC(=O)[C@H](CC(C)C)NC(=O)[C@H](CCCNC(=N)N)NC(=O)[C@H](C)NC(=O)[C@H](Cc2c[nH]c3ccccc23)NC(=O)[C@H](C)NC(=O)[C@H](C)NC(=O)[C@H](CCCNC(=N)N)NC(=O)[C@H](CO)NC(=O)[C@H](CCCCN)NC(=O)[C@@H](NC(=O)[C@H](CC(=O)O)NC(=O)[C@@H](NC(=O)[C@H](CCCNC(=N)N)NC(=O)[C@H](CC(C)C)NC(=O)[C@@H](N)CC(=O)O)C(C)C)[C@@H](C)O)CSSC[C@@H](C(=O)O)NC(=O)CNC(=O)[C@H](CC(C)C)NC(=O)CNC(=O)[C@H](CO)NC(=O)[C@H](CCSC)NC(=O)[C@H](CO)NC(=O)CNC1=O` [Native CNP-53], for which, in “in vivo [2]” (male, SD), the half-life came to 15.7 min.

In the series “in vivo [1]”, “VQQRKESKKPPAKLQPRCFGLKLDRIGSMSGLGCVQQRKESKKPPAKLQPR (disulfide 18-34) [Chimeric CNP (E)]” displayed a half-life of 18.4 min.

As for `CC[C@H](C)[C@@H]1NC(=O)[C@H](CCCNC(=N)N)NC(=O)[C@H](CC(=O)O)NC(=O)[C@H](CC(C)C)NC(=O)[C@H](CCCCN)NC(=O)[C@H](CC(C)C)NC(=O)CNC(=O)[C@H](Cc2ccccc2)NC(=O)[C@@H](NC(=O)CNC(=O)[C@H](CCCCN)NC(=O)[C@H](CO)NC(=O)[C@H](CC(C)C)NC(=O)CN)CSSC[C@@H](C(=O)N[C@H](C(=O)N[C@@H](CCC(N)=O)C(=O)N[C@@H](CCC(N)=O)C(=O)N[C@@H](CCCNC(=N)N)C(=O)N[C@@H](CCCCN)C(=O)N[C@@H](CCC(=O)O)C(=O)N[C@@H](CO)C(=O)N[C@@H](CCCCN)C(=O)N[C@@H](CCCCN)C(=O)N2CCC[C@H]2C(=O)N2CCC[C@H]2C(=O)N[C@@H](C)C(=O)N[C@@H](CCCCN)C(=O)N[C@@H](CC(C)C)C(=O)N[C@@H](CCC(N)=O)C(=O)N2CCC[C@H]2C(=O)N[C@@H](CCCNC(=N)N)C(=O)O)C(C)C)NC(=O)CNC(=O)[C@H](CC(C)C)NC(=O)CNC(=O)[C@H](CO)NC(=O)[C@H](CCSC)NC(=O)[C@H](CO)NC(=O)CNC1=O` [Chimeric CNP (D)] (H-GLSKGCFGLKLDRIGSMSGLGCVQQRKESKKPPAKLQPR-OH; disulfide 6-22; N-terminus and C-terminus assumed), the “half-life compared with native CNP-22, native CNP-22 together with NEP inhibitor and native CNP-53” value in the series “in vivo [2]” was “longer half-life”. This molecule had a half-life in “in vivo [1]” of 20.3 min.

In “in vivo [1]”, `CC[C@H](C)[C@@H]1NC(=O)[C@H](CCCNC(=N)N)NC(=O)[C@H](CC(=O)O)NC(=O)[C@H](CC(C)C)NC(=O)[C@H](CCCCN)NC(=O)[C@H](CC(C)C)NC(=O)CNC(=O)[C@H](Cc2ccccc2)NC(=O)[C@@H](NC(=O)[C@@H](NC(=O)[C@H](CCC(N)=O)NC(=O)[C@H](CCC(N)=O)NC(=O)[C@H](CCCNC(=N)N)NC(=O)[C@H](CCCCN)NC(=O)[C@H](CCC(=O)O)NC(=O)[C@H](CO)NC(=O)[C@H](CCCCN)NC(=O)[C@H](CCCCN)NC(=O)[C@@H]2CCCN2C(=O)[C@@H]2CCCN2C(=O)[C@H](C)NC(=O)[C@H](CCCCN)NC(=O)[C@H](CC(C)C)NC(=O)[C@H](CCC(N)=O)NC(=O)[C@@H]2CCCN2C(=O)[C@@H](N)CCCNC(=N)N)C(C)C)CSSC[C@@H](C(=O)O)NC(=O)CNC(=O)[C@H](CC(C)C)NC(=O)CNC(=O)[C@H](CO)NC(=O)[C@H](CCSC)NC(=O)[C@H](CO)NC(=O)CNC1=O` [Chimeric CNP (H)] (H-RPQLKAPPKKSEKRQQVCFGLKLDRIGSMSGLGC-OH; disulfide 18-34; N-terminus and C-terminus assumed) displayed a half-life of 14.9 min.

As for “RPQLKAPPKKSEKRQQVCFGLKLDRIGSMSGLGCVQQRKESKKPPAKLQPR (disulfide 18-34) [Chimeric CNP (F)]”, in the series “in vivo [1]”, the half-life came out at 17.4 min.
